The source of these data is PMC4319760, “Rapid Identification of α-Glucosidase Inhibitors from Phlomis tuberosa by Sepbox Chromatography and Thin-Layer Chromatography Bioautography” (PLoS ONE, 2015).

The term IC50 denotes the concentration that inhibits the measured activity by half.

One series has as its target α-Glucosidase. Put plainly: α-Glucosidase inhibitory activity assay (4-nitrophenyl α-glucopyranoside substrate, absorbance at 405 nm). Particulars: 0.26 U/mL enzyme, pH 6.8, 37°C; mean ± SEM, triplicate. The format is biochemical, Saccharomyces cerevisiae. How it is done: After incubation at 37°C for 10 min, 100 μL of the substrate, 4-nitrophenyl α-glucopyranoside (5 mM, in potassium phosphate buffer) was added to the mixture. The enzymatic reaction was allowed to proceed at 37°C for 20 min and stopped by addition of 100 μL of 0.2 M NaCO3. 4-Nitrophenol absorptions were subsequently measured at 405 nm using a spectrophotometer. […] The IC50 value was defined as the concentration of α-glucosidase inhibitor required to inhibit 50% of α-glucosidase activity under the assay conditions. Experiments were performed in triplicate, and all results are expressed as mean ± SEM.

On the set-up of series [1]: method as in PMID 23850835, PMID 18460146. Particulars: previous toxicity studies; ref [23]–[25]; cited from earlier work.
Another series concerns α-D-glucosidase. Put plainly: TLC bioautographic assay for α-glucosidase inhibitors. The format is biochemical. Particulars: S1 Fig, subfractions 20 μL, ethyl acetate fraction 5 mg/mL, acarbose 1 mg/mL, 4 μL, qualitative. From the text:
In the present work, a high-performance thin-layer chromatographic system (CAMAG, Switzerland) equipped with an automatic TLC Sampler 4 and a Reprostar 3 with a 12-bit charge-coupled device camera for photo-documentation and controlled by WinCATS-4 software was used. […] After migration of the samples with appropriate solvents or no migration, the plates were inspected under ultraviolet light (366 nm) and then subjected to bioautographic assay as described below.
TLC bioautographic assay: TLC bioautographic assay was carried out as described previously in terms of reaction principle and response system but with slight modifications. First, the concentration of α-glucosidase was reduced from 10 U/mL to 2.5 U/mL. Second, the plate was dipped into the reaction solutions (including the enzyme solution, the substrate solution, and the coloration solution), instead of being sprayed with them. Third, the conditions for enzyme incubation were changed from room temperature for 60 min to 37°C for 30 min. Briefly, α-D-glucosidase (750 U) was dissolved in 75 mL of buffer solution (10.25 g of sodium acetate in 250 mL with addition of 0.1 M acetic acid to pH 7.5). The stock solution was kept at -20°C. A stock solution of 25 mL was diluted with the same buffer solution to 100 mL as the enzyme solution, and a substrate solution of 1 mg/mL 2-naphthyl-α-D-glucopyranoside in ethanol was prepared. […]

Each structure is given as a SMILES string.

Consider `CC1=C(CCc2ccoc2)C2(C)CCCC(C)(C)C2CC1` (centres unmarked) [Compound 6, 15,16-eposy-8,13(16),14-labdatrien], for which 0.21 ± 0.01 mM corresponded to half-maximal inhibition at α-Glucosidase (IC50).

`CCCCC/C=C/c1c(O)cc(CC=C(C)C)c(O)c1C=O` [Compound 18, tetrahydroauroglaucin]: the IC50 against α-Glucosidase was 0.283 ± 0.013 mM. Still for that read-out and setting: the result for `CC1=C(CCc2ccoc2)C2(C)CCCC(C)(C(=O)O)C2CC1` (centres unmarked) [Compound 5, phlomisoic acid] reads 0.482 ± 0.019 mM; that for `C[C@@H]1O[C@@H](O[C@@H]2[C@@H](O)[C@H](OCCc3ccc(O)c(O)c3)O[C@H](COC(=O)/C=C/c3ccc(O)c(O)c3)[C@H]2O)[C@H](O)[C@H](O)[C@H]1O` [Compound 8, isoacteoside], 1.2 ± 0.032 mM; that for `O=c1cc(-c2ccc(O)c(O)c2)oc2cc(O)cc(O)c12` [Compound 11, luteolin], 0.428 ± 0.018 mM. The same measure, in the same setting: the result for `CC1(C(=O)O)CCCC2(C)c3c(C=O)c4c(c(O)c3CCC12)COC4=O` (centres unmarked) [Compound 1, 14-hydroxyabieta-8,11,13-triene-11-carbaldehyde-18-oic-12-carboxy-13-(1-hydroxy-1-methylethyl)-lactone] reads 0.379 ± 0.016 mM. Take `COc1ccc(-c2cc(=O)c3c(O)cc(OC4OC(COC5OC(C)C(O)C(O)C5O)C(O)C(O)C4O)cc3o2)cc1` (centres unmarked) [Compound 10, acacetin-7-rutinoside]: the toxicity result in series [1] is reported as “nontoxic”. `CC1=C(CCc2ccoc2)C2(C)CCCC(C)(CO)C2CC1` (centres unmarked) [Compound 4, 15,16-eposy-8,13(16),14-labdatrien-19-ol] came in with an IC50 on α-Glucosidase of 0.067 ± 0.003 mM.

As to `CC1OC(Oc2c(-c3ccc(O)c(O)c3)oc3cc(O)cc(O)c3c2=O)C(O)C(O)C1O` (centres unmarked) [Compound 12, quercetin-3-rhamnoside], half-maximal inhibition on α-Glucosidase (IC50) was put at 0.562 ± 0.021 mM. Further, in series [1], the toxicity entry is recorded as “nontoxic”. At α-Glucosidase, `CCCCCc1cc2c(C=O)c(O)c(CC=C(C)C)cc2o1` [Compound 20, 2-(2′,3-epoxy-1′-heptenyl)-6-hydroxy-5-(3″-methyl-2″-butenyl) benzaldehyde] came in with an IC50 of 0.371 ± 0.015 mM. Still for that read-out and setting: next, `CC1(C(=O)O)CCCC2(C)c3cc4c(c(O)c3CCC12)COC4=O` (centres unmarked) [Compound 2, 14-hydroxyabieta-8,11,13-triene-17-oic-12-carboxy-13-(1-hydroxy-1-methylethyl)-lactone]: 0.624 ± 0.026 mM. Turning to `C[C@H]1O[C@H](O[C@H]2[C@H](O)[C@@H](O)[C@@H](O[C@H]3[C@H](O)[C@@H](O)C(O)O[C@@H]3CO)O[C@@H]2CO)[C@H](O)[C@@H](O)[C@@H]1N[C@H]1C=C(CO)[C@@H](O)[C@H](O)[C@H]1O` (some centres unmarked) [Acarbose, acarbose], the “α-glucosidase inhibitory activity in bioautographic chromatogram (white spots), screening” value in the series with α-D-glucosidase is on record as “produced white spots”. At α-Glucosidase, `C[C@@H]1O[C@@H](O[C@@H]2[C@@H](O)[C@H](OCCc3ccc(O)c(O)c3)O[C@H](CO)[C@H]2OC(=O)/C=C/c2ccc(O)c(O)c2)[C@H](O)[C@H](O)[C@H]1O` [Compound 7, acteoside] showed an IC50 of 0.518 ± 0.017 mM. Further, in series [1], the toxicity result is reported as “nontoxic”. On α-Glucosidase, `CCCCCCCc1c(O)cc(CC=C(C)C)c(O)c1C=O` [Compound 17, flavoglaucin] came in with an IC50 of 0.229 ± 0.017 mM. On the same count and under the same terms, the result for `CCC/C=C/C=C/c1c(O)cc(CC=C(C)C)c(O)c1C=O` [Compound 19, dihydroauroglaucin] reads 0.255 ± 0.013 mM.
